Results as given in patent publication US8293732B2, “Antibacterial quinoline derivatives” (Janssen Pharmaceutica N.V., priority 2006, dated 2012).
≈ marks a conversion by molar mass, not a printed value.

Tests used:
Format in all cases: cell-based
[1] = test system: M. Smegmatis (ATCC607); experiment: In-vitro anti-bacterial activity against strain M. Smegmatis ATCC607; conditions: 90% inhibitory concentration for bacterial growth, 37° C., Alamar Blue fluorescence; for IC90: Mycolicibacterium smegmatis, ATCC607, 48 h, read-out: IC90 values MSM 1 ATCC607; for IC90 values MSM 1 ATCC607: 48 hours
Protocol: Flat-bottom, sterile 96-well plastic microtiter plates were filled with 180 μl of sterile deionized water, supplemented with 0.25% BSA. Subsequently, stock solutions (7.8× final test concentration) of compounds were added in 45 μl volumes to a series of duplicate wells in column 2 so as to allow evaluation of their effects on bacterial growth. Serial five-fold dilutions (45 μl in 180 μl) were made directly in the microtiter plates from column 2 to 11 using a customised robot system (Zymark Corp., Hopkinton, Mass.). Pipette tips were changed after every 3 dilutions to minimize pipetting errors with high hydrophobic compounds. Untreated control samples with (column 1) and without (column 12) inoculum were included in each microtiter plate. Approximately 250 CFU per well of bacteria inoculum, in a volume of 100 μl in 2.8× Mueller-Hinton broth medium, was added to the rows A to H, except column 12. The same volume of broth medium without inoculum was added to column 12 in row A to H. The cultures were incubated at 37° C. for 48 hours in a humidified 5% CO2 atmosphere (incubator with open air valve and continuous ventilation). At the end of incubation, two days after inoculation, the bacterial growth was quantitated fluorometrically. Therefore Alamar Blue (10×) was added to all wells in a volume of 20 μl and plates were incubated for another 2 hours at […]
The fluorescence was read in a computer-controlled fluorometer (Cytofluor, Biosearch) at an excitation wavelength of 530 nm and an emission wavelength of 590 nm (gain 30).
(§1) STA 29213 means Staphylococcus aureus (ATCC29213); SPN 6305 means Streptococcus pneumoniae (ATCC6305); MSM 607 means M. Smegmatis (ATCC607); ATCC means […].

[2] = test system: Streptococcus pneumoniae (ATCC6305); experiment: In-vitro anti-bacterial microtitre plate assay, IC90 determination (SPN 1 6305); conditions: 90% inhibitory concentration for bacterial growth, 37° C., resazurin fluorescence; for IC90 values SPN 1 6305: 24 hours; for IC90: Streptococcus pneumoniae, ATCC6305, 24 h
Protocol: (§2) The bacteria used in this study were grown overnight in flasks containing 100 ml Mueller-Hinton Broth (Becton Dickinson—cat. no. 275730) in sterile de-ionized water, with shaking, at 37° C. Stocks (0.5 ml/tube) were stored at −70° C. until use. Bacteria titrations were performed in microtiter plates to detect the TCID50, in which the TCID50 represents the dilution that gives rise to bacterial growth in 50% of inoculated cultures.
(§3) In general, an inoculum level of approximately 100 TCID50 was used for susceptibility testing.
(§4) Flat-bottom, sterile 96-well plastic microtiter plates were filled with 180 μl of sterile deionized water, supplemented with 0.25% BSA. Subsequently, stock solutions (7.8× final test concentration) of compounds were added in 45 μl volumes in column 2. Serial five-fold dilutions (45 μl in 180 μl) were made directly in the microtiter plates from column 2 to reach column 11. Untreated control samples with (column 1) and without (column 12) inoculum were included in each microtiter plate. Depending on the bacteria type, approximately 10 to 60 CFU per well of bacteria inoculum (100 TCID50), in a volume of 100 μl in 2.8× Mueller-Hinton broth medium, was added to the rows A to H, except column 12. The same volume of broth medium without inoculum was added to column 12 in row A to H. The cultures were incubated at 37° C. for 24 hours under a normal atmosphere (incubator with open air valve and continuous ventilation). At the end of incubation, one day after inoculation, the bacterial growth was quantitated fluorometrically. Therefore resazurin (0.6 mg/ml) was added in a volume of 20 μl to all wells 3 hours after inoculation, and the plates were re-incubated overnight. A change in colour from blue to pink indicated the growth of bacteria. The fluorescence was read in a computer-controlled fluorometer (Cytofluor Biosearch) at an excitation wavelength of 530 nm and an emission wavelength of 590 nm. The % growth inhibition achieved by the compounds was calculated according to standard methods.
as §1

[3] = test system: Staphylococcus aureus (ATCC29213); experiment: In-vitro anti-bacterial microtitre plate assay, IC90 determination (STA 1 B29213); conditions: 90% inhibitory concentration for bacterial growth, 37° C., resazurin fluorescence; for IC90 values STA 1 B29213: 24 hours; for IC90: Staphylococcus aureus, ATCC29213, 24 h
Protocol: as §2, §3, §4, §1

SMILES | IC90 [1] [µg/mL] | IC90 values SPN 1 6305 [2] [µg/mL] | IC90 values STA 1 B29213 [3] [µg/mL] | IC90 [2] [µg/mL] | IC90 [3] [µg/mL] | IC90 values MSM 1 ATCC607 [1] [µg/mL]
COc1nc2ccc(Br)cc2cc1C(c1ccc(Cl)cc1)C(O)(CCCCN(C)C)COc1ccccc1 (single isomer, unassigned) [Compound 3] | 1.7 (≈ 2.84 µM) | 11.9 (≈ 19.9 µM) | 9.5 (≈ 15.9 µM) | – | – | –
COc1nc2ccccc2cc1C(c1ccc(-c2cccnc2)cc1)C(O)(CCCCN(C)C)c1ccc2ccccc2c1 (single isomer, unassigned) [Compound 7] | 1.8 (≈ 3.09 µM) | – | – | 1.8 (≈ 3.09 µM) | 1.8 (≈ 3.09 µM) | –
COc1nc2ccccc2cc1C(c1ccc(-c2cccnc2)cc1)C(O)(CCCCN(C)C)c1ccc2ccccc2c1 (single isomer, unassigned) [Compound 7b] | – | 1.85 (≈ 3.18 µM) | 1.8 (≈ 3.09 µM) | – | – | 1.5 (≈ 2.58 µM)
COc1nc2ccccc2cc1C(c1cccc(-c2ccncc2)c1)C(O)(CCCCN(C)C)c1ccc2ccccc2c1 (single isomer, unassigned) [Compound 8] | 1.8 (≈ 3.09 µM) | – | 9.2 (≈ 15.8 µM) | 1.8 (≈ 3.09 µM) | – | –
COc1nc2ccccc2cc1C(c1cccc(-c2ccncc2)c1)C(O)(CCCCN(C)C)c1ccc2ccccc2c1 (single isomer, unassigned) [Compound 9] | – | 1.8 (≈ 3.09 µM) | 1.8 (≈ 3.09 µM) | – | – | 1.5 (≈ 2.58 µM)
COc1nc2ccccc2cc1C(c1ccc(-c2cnn(C)c2)cc1)C(O)(CCCCN(C)C)c1ccc2ccccc2c1 (single isomer, unassigned) [Compound 11] | – | 1.9 (≈ 3.25 µM) | 1.9 (≈ 3.25 µM) | – | – | 1.9 (≈ 3.25 µM)
COc1nc2ccccc2cc1C(c1ccc(-c2ccoc2)cc1)C(O)(CCCCN(C)C)c1ccc2ccccc2c1 (single isomer, unassigned) [Compound 12] | 1.8 (≈ 3.15 µM) | – | – | 2 (≈ 3.5 µM) | 1.8 (≈ 3.15 µM) | –
COc1nc2ccccc2cc1C(c1ccc(-c2cccs2)cc1)C(O)(CCCCN(C)C)c1ccc2ccccc2c1 (single isomer, unassigned) [Compound 14] | 1.9 (≈ 3.24 µM) | – | – | 2.3 (≈ 3.92 µM) | 1.9 (≈ 3.24 µM) | –
COc1nc2ccccc2cc1C(c1ccc(-c2cccs2)cc1)C(O)(CCCCN(C)C)c1ccc2ccccc2c1 (single isomer, unassigned) [Compound 15] | – | 2.3 (≈ 3.92 µM) | 1.9 (≈ 3.24 µM) | – | – | –
COc1nc2ccc(Br)cc2cc1C(c1ccccc1)C(O)(CCCCN1CCN(C)CC1)COc1ccccc1 (single isomer, unassigned) [Compound 19] | – | 2.5 (≈ 4.04 µM) | 4.4 (≈ 7.11 µM) | – | – | 2.0 (≈ 3.23 µM)
COc1nc2ccc(Br)cc2cc1C(c1ccc(Cl)cc1)C(O)(CCCCN1CCN(C)CC1)COc1ccccc1 (single isomer, unassigned) [Compound 21] | – | 2.6 (≈ 3.98 µM) | 2.1 (≈ 3.22 µM) | – | – | 2.1 (≈ 3.22 µM)
COc1nc2ccc(Br)cc2cc1C(c1ccccc1)C(O)(CCCCN1CCN(C)CC1)COc1ccc(C)cc1 (single isomer, unassigned) [Compound 23] | – | 2.0 (≈ 3.16 µM) | 2.0 (≈ 3.16 µM) | – | – | 2.0 (≈ 3.16 µM)
COc1nc2ccc(Br)cc2cc1C(c1ccccc1)C(O)(CCCCCN(C)C)c1cccc(-c2ccccc2)c1 (single isomer, unassigned) [Compound 35] | 1.76 (≈ 2.82 µM) | – | – | – | 1.97 (≈ 3.16 µM) | –
COc1nc2ccc(Br)cc2cc1C(c1ccccc1)C(O)(CCCCCN(C)C)c1cccc(-c2ccccc2)c1 (single isomer, unassigned) [Compound 36] | – | – | 1.97 (≈ 3.16 µM) | – | – | 1.76 (≈ 2.82 µM)
COc1nc2ccc(Br)cc2cc1C(c1ccccc1)C(O)(CCCCCN(C)C)c1cccc(/C=C/c2ccccc2)c1 (single isomer, unassigned) [Compound 37] | 1.63 (≈ 2.51 µM) | – | – | – | 2.05 (≈ 3.16 µM) | –
COc1nc2ccc(Br)cc2cc1C(c1ccccc1)C(O)(CCCCN(C)C)c1cccc(-c2ccc(C)cc2)c1 (single isomer, unassigned) [Compound 42] | – | – | 2.21 (≈ 3.54 µM) | – | – | 0.79 (≈ 1.27 µM)
COc1nc2ccccc2cc1C(c1ccc(-c2ccncc2)cc1)C(O)(CCCCN(C)C)c1ccc2ccccc2c1 (single isomer, unassigned) [Compound 43] | – | – | 4.60 (≈ 7.91 µM) | – | – | 0.37 (≈ 0.636 µM)
COc1nc2ccccc2cc1C(c1ccc(-c2cnc3ccccc3c2)cc1)C(O)(CCCCN(C)C)c1ccc2ccccc2c1 (single isomer, unassigned) [Compound 49] | – | – | 2.00 (≈ 3.17 µM) | – | – | 2.00 (≈ 3.17 µM)
COc1nc2ccccc2cc1C(c1ccc(-c2cnc3ccccc3c2)cc1)C(O)(CCCCN(C)C)c1ccc2ccccc2c1 (single isomer, unassigned) [Compound 50] | – | – | 25.15 (≈ 39.8 µM) | – | – | 22.42 (≈ 35.5 µM)
COc1nc2ccc(Br)cc2cc1C(c1ccoc1)C(O)(CCN(C)C)c1ccccc1 (single isomer, unassigned) [Compound 51] | – | – | – | – | 39.4 (≈ 79.4 µM) | 1.57 (≈ 3.17 µM)
COc1nc2ccc(Br)cc2cc1C(c1ccoc1)C(O)(CCN(C)C)c1ccccc1 (single isomer, unassigned) [Compound 52] | – | – | 49.54 (≈ 100 µM) | – | – | 0.06 (≈ 0.121 µM)
COc1nc2ccc(Br)cc2cc1C(c1ccoc1)C(O)(CCc1ccc(F)cc1)CCN(C)C (single isomer, unassigned) [Compound 54] | – | – | 8.58 (≈ 15.8 µM) | – | – | 1.92 (≈ 3.55 µM)
COc1nc2ccc(Br)cc2cc1C(c1ccccc1)C(O)(CCCCN(C)C)c1cccc(/C=C/c2ccccc2)c1 (stereo not drawn) [Compound 44] | – | – | – | – | 1.79 (≈ 2.82 µM) | 0.90 (≈ 1.42 µM)
COc1nc2ccc(Br)cc2cc1C(c1ccccc1)C(O)(CCCCN(C)C)c1cccc(/C=C/c2ccccc2)c1 (stereo not drawn) [Compound 45] | – | – | 2.01 (≈ 3.16 µM) | – | – | 2.01 (≈ 3.16 µM)
COc1nc2ccc(Br)cc2cc1C(c1ccccc1)C(O)(CCCCN(C)C)c1cccc(/C=C/c2ccccc2)c1 (stereo not drawn) [Compound 46] | – | – | 2.01 (≈ 3.16 µM) | – | – | 2.01 (≈ 3.16 µM)
COc1nc2ccc(Br)cc2cc1C(c1ccccc1)C(O)(CCCCN(C)C)c1cccc(/C=C/c2ccccc2)c1 (stereo not drawn) [Compound 47] | – | – | 2.01 (≈ 3.16 µM) | – | – | 2.01 (≈ 3.16 µM)
